{"source": "paper PMC6199744", "about": "“Development of Chemical Proteomics for the Folateome and Analysis of the Kinetoplastid Folateome” (ACS Infectious Diseases, 2018)", "assay_type_in_all_cases": "binding", "key": {"[1]": {"target": "T1, HeLa cell extract proteins (Homo sapiens, UniProt Q9HCC0)", "T1 construct": "endogenous in cells; host or cells: HeLa cell extract", "T1 sequence (Q9HCC0 23-563)": "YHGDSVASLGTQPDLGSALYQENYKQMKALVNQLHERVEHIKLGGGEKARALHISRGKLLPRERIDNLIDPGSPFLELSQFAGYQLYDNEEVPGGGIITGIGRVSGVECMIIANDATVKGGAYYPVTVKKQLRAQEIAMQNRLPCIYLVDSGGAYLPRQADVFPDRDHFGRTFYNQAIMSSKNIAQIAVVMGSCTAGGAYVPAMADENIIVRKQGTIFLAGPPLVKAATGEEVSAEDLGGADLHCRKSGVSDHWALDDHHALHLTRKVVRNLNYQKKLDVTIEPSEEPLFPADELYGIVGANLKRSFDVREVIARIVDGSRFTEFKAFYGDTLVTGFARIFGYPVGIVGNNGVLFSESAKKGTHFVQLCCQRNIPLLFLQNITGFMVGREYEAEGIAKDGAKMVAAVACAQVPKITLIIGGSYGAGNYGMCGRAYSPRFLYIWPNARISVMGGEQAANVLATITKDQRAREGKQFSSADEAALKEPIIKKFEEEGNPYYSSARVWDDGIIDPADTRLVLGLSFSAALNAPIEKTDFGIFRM"}, "[2]": {"target": "T2, HeLa cell extract proteins (Homo sapiens, UniProt Q15084)", "T2 construct": "endogenous in cells; host or cells: HeLa cell extract", "T2 sequence (Q15084 20-440)": "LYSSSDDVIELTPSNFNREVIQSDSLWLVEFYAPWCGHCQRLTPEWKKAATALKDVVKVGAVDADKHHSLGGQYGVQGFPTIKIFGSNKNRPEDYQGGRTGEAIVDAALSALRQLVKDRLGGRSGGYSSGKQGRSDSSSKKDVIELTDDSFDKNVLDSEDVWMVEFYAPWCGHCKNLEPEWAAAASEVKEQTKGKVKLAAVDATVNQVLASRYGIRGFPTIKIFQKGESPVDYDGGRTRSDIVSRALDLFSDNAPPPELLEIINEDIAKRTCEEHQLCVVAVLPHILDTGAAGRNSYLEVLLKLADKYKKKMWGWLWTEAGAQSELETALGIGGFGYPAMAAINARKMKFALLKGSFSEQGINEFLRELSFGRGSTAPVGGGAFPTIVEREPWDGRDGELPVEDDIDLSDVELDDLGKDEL"}, "[3]": {"target": "T3, HeLa cell extract proteins (Homo sapiens, UniProt P33991)", "T3 construct": "endogenous in cells; host or cells: HeLa cell extract", "T3 sequence (P33991 1-863)": "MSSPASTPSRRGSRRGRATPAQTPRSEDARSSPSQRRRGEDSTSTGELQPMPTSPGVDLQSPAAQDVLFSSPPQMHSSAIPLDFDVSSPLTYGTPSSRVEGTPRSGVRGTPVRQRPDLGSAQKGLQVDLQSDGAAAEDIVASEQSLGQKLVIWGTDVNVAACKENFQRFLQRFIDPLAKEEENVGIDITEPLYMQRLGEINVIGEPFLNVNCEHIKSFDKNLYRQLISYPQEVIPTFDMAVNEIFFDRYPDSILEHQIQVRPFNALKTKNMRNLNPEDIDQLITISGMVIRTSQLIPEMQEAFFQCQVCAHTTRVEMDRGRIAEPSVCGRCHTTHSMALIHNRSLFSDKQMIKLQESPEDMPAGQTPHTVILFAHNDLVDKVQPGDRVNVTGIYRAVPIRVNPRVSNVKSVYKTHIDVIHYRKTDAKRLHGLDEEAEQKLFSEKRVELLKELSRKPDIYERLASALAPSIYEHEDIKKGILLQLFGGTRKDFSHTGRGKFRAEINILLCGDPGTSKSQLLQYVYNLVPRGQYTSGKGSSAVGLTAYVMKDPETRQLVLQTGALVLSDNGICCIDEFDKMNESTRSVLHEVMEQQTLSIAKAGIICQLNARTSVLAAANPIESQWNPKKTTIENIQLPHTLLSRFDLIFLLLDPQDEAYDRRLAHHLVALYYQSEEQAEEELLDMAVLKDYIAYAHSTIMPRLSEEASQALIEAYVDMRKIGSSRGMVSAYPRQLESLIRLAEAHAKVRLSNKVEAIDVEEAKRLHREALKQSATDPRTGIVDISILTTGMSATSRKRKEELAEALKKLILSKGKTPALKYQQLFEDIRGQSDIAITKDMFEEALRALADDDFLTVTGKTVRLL"}, "[4]": {"target": "T4, HeLa cell extract proteins (Homo sapiens, UniProt P38606)", "T4 construct": "endogenous in cells; host or cells: HeLa cell extract", "T4 sequence (P38606 whole entry)": "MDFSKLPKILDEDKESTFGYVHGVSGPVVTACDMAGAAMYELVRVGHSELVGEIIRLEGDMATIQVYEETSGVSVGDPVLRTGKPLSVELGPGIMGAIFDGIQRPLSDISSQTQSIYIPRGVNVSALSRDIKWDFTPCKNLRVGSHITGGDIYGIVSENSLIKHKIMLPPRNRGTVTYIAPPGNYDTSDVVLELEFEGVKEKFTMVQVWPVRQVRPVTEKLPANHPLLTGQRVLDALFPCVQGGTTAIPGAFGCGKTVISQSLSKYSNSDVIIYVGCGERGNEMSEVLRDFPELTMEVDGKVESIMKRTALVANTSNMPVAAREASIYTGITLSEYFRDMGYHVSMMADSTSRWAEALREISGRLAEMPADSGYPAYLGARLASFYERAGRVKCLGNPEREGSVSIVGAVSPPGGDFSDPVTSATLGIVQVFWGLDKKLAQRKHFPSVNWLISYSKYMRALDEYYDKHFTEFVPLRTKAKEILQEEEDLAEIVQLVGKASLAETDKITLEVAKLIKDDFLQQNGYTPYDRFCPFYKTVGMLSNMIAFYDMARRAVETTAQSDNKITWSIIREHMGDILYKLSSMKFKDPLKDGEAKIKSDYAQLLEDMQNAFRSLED"}, "[5]": {"target": "T5, HeLa cell extract proteins (Homo sapiens, UniProt P42704)", "T5 construct": "endogenous in cells; host or cells: HeLa cell extract"}, "[6]": {"target": "T6, HeLa cell extract proteins (Homo sapiens, UniProt Q9NPA3)", "T6 construct": "endogenous in cells; host or cells: HeLa cell extract", "T6 sequence (Q9NPA3 whole entry)": "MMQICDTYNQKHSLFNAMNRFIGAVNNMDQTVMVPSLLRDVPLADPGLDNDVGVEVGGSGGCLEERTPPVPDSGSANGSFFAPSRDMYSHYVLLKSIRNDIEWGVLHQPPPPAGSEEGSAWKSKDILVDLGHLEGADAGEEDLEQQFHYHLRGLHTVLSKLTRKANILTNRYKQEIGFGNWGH"}, "[7]": {"target": "T7, HeLa cell extract proteins (Homo sapiens, UniProt P61981)", "T7 construct": "endogenous in cells; host or cells: HeLa cell extract", "T7 sequence (P61981 1-247)": "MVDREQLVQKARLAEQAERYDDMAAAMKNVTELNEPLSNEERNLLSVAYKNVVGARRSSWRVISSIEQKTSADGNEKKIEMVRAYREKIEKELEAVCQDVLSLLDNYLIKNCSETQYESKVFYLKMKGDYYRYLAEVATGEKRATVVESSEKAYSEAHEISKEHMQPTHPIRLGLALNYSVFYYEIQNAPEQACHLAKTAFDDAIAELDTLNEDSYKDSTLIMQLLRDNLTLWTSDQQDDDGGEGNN"}, "[8]": {"target": "T8, HeLa cell extract proteins (Homo sapiens, UniProt Q9UI30)", "T8 construct": "endogenous in cells; host or cells: HeLa cell extract", "T8 sequence (Q9UI30 1-125)": "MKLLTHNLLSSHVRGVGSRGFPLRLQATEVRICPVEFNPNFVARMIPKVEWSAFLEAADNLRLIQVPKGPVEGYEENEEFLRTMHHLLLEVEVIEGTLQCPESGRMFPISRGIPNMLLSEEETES"}, "[9]": {"conditions": "HeLa, protein YWHAG (14-3-3 PROTEIN GAMMA.)"}}, "note": "Where two headings read alike, the source gives them in different places."}
{"smiles": "Nc1nc2c(c(=O)[nH]1)N(C=O)C(CNc1ccc(C(=O)N[C@@H](CCC(=O)O)C(=O)O)cc1)CN2", "note": "(some centres unmarked) [LEU, leucovorin]", "values": [{"measurement": "fold changes relative to vehicle control", "setting": "[1]; HeLa, protein MCCC2", "result": 0.94}, {"measurement": "fold changes relative to vehicle control", "setting": "[2]; HeLa, protein PDIA6", "result": 1.03}, {"measurement": "fold changes relative to vehicle control", "setting": "[3]; protein MCM4, HeLa", "result": 0.87}, {"measurement": "fold changes relative to vehicle control", "setting": "[4]; HeLa, protein ATP6V1A", "result": 1}, {"measurement": "fold changes relative to vehicle control", "setting": "[5]; HeLa, protein LRPPRC", "result": 0.92}, {"measurement": "fold changes relative to vehicle control", "setting": "[6]; HeLa, protein MIG12", "result": 0.91}, {"measurement": "fold changes relative to vehicle control", "setting": "[7]; protein YWHAG, HeLa", "result": 1.02}, {"measurement": "fold changes relative to vehicle control", "setting": "[8]; HeLa, protein HSPC152", "result": 1.17}]}
{"smiles": "Nc1nc2[nH]cc(CCc3ccc(C(=O)N[C@@H](CCC(=O)O)C(=O)O)cc3)c2c(=O)[nH]1", "note": "[PTX, pemetrexed]", "values": [{"measurement": "fold changes relative to vehicle control", "setting": "[1]", "result": 0.87}, {"measurement": "fold changes relative to vehicle control", "setting": "[2]", "result": 1.12}, {"measurement": "fold changes relative to vehicle control", "setting": "[3]", "result": 0.96}, {"measurement": "fold changes relative to vehicle control", "setting": "[4]", "result": 0.9}, {"measurement": "fold changes relative to vehicle control", "setting": "[5]", "result": 1.15}, {"measurement": "fold changes relative to vehicle control", "setting": "[6]", "result": 0.96}, {"measurement": "fold changes relative to vehicle control", "setting": "[7]", "result": 1.09}, {"measurement": "fold changes relative to vehicle control", "setting": "[8]", "result": 1.21}]}
{"smiles": "CCCCCCOc1ccc(Cc2cnc(N)nc2N)cc1", "note": "[compound 1]", "values": [{"measurement": "fold changes relative to vehicle control", "setting": "[1]; captured protein MCCC2, HeLa", "result": 0.78}, {"measurement": "fold changes relative to vehicle control", "setting": "[2]; protein PDIA6, HeLa", "result": 1.09}, {"measurement": "fold changes relative to vehicle control", "setting": "[3]; protein MCM4, HeLa", "result": 1.11}, {"measurement": "fold changes relative to vehicle control", "setting": "[4]; protein ATP6V1A, HeLa", "result": 1.04}, {"measurement": "fold changes relative to vehicle control", "setting": "[5]; protein LRPPRC, HeLa", "result": 0.92}, {"measurement": "fold changes relative to vehicle control", "setting": "[6]; captured protein MIG12, HeLa", "result": 0.84}, {"measurement": "fold changes relative to vehicle control", "setting": "[7]; [9]", "result": 1.45, "unit": "fold"}, {"measurement": "fold changes relative to vehicle control", "setting": "[8]; HeLa, protein HSPC152", "result": 0.96}]}
{"smiles": "CCCCCCOc1cccc(Cc2cnc(N)nc2N)c1", "note": "[compound 2]", "values": [{"measurement": "fold changes relative to vehicle control", "setting": "[1]; captured protein MCCC2, HeLa", "result": 1.08}, {"measurement": "fold changes relative to vehicle control", "setting": "[2]; protein PDIA6, HeLa", "result": 1.75}, {"measurement": "fold changes relative to vehicle control", "setting": "[3]; protein MCM4, HeLa", "result": 1.59}, {"measurement": "fold changes relative to vehicle control", "setting": "[4]; protein ATP6V1A, HeLa", "result": 1.5}, {"measurement": "fold changes relative to vehicle control", "setting": "[5]; protein LRPPRC, HeLa", "result": 1.33}, {"measurement": "fold changes relative to vehicle control", "setting": "[6]; captured protein MIG12, HeLa", "result": 1}, {"measurement": "fold changes relative to vehicle control", "setting": "[7]; [9]", "result": 2.09, "unit": "fold"}, {"measurement": "fold changes relative to vehicle control", "setting": "[8]; HeLa, protein HSPC152", "result": 1.18}]}
{"smiles": "Nc1nc2cccc(-c3ccccc3)c2n1Cc1ccc(Cl)c(Cl)c1", "note": "[compound 3]", "values": [{"measurement": "fold changes relative to vehicle control", "setting": "[1]; captured protein MCCC2, HeLa", "result": 0.86}, {"measurement": "fold changes relative to vehicle control", "setting": "[2]; protein PDIA6, HeLa", "result": 0.89}, {"measurement": "fold changes relative to vehicle control", "setting": "[3]; protein MCM4, HeLa", "result": 0.9}, {"measurement": "fold changes relative to vehicle control", "setting": "[4]; protein ATP6V1A, HeLa", "result": 0.83}, {"measurement": "fold changes relative to vehicle control", "setting": "[5]; protein LRPPRC, HeLa", "result": 0.74}, {"measurement": "fold changes relative to vehicle control", "setting": "[6]; captured protein MIG12, HeLa", "result": 0.95}, {"measurement": "fold changes relative to vehicle control", "setting": "[7]; [9]", "result": 0.97, "unit": "fold"}, {"measurement": "fold changes relative to vehicle control", "setting": "[8]; HeLa, protein HSPC152", "result": 1.04}]}
{"smiles": "NCCOCCOCC(=O)Nc1nc2ncc(CNc3ccc(C(=O)NC(CCC(=O)O)C(=O)O)cc3)nc2c(=O)[nH]1", "note": "(centres unmarked) [compound 6]", "values": [{"measurement": "fold changes relative to vehicle control", "setting": "[1]; HeLa, protein MCCC2", "result": 1}, {"measurement": "fold changes relative to vehicle control", "setting": "[2]; HeLa, protein PDIA6", "result": 1.35}, {"measurement": "fold changes relative to vehicle control", "setting": "[3]; protein MCM4, HeLa", "result": 1.08}, {"measurement": "fold changes relative to vehicle control", "setting": "[4]; HeLa, protein ATP6V1A", "result": 1.04}, {"measurement": "fold changes relative to vehicle control", "setting": "[5]; HeLa, protein LRPPRC", "result": 1.22}, {"measurement": "fold changes relative to vehicle control", "setting": "[6]; HeLa, protein MIG12", "result": 1.1}, {"measurement": "fold changes relative to vehicle control", "setting": "[7]; protein YWHAG, HeLa", "result": 1.26}, {"measurement": "fold changes relative to vehicle control", "setting": "[8]; HeLa, protein HSPC152", "result": 1.36}]}
{"smiles": "NCCCNc1ccc(C(=O)NC(CCC(=O)O)C(=O)O)cc1", "note": "(centres unmarked) [compound 7]", "values": [{"measurement": "fold changes relative to vehicle control", "setting": "[1]; HeLa, protein MCCC2", "result": 1}, {"measurement": "fold changes relative to vehicle control", "setting": "[2]; HeLa, protein PDIA6", "result": 1}, {"measurement": "fold changes relative to vehicle control", "setting": "[3]; protein MCM4, HeLa", "result": 0.93}, {"measurement": "fold changes relative to vehicle control", "setting": "[4]; HeLa, protein ATP6V1A", "result": 0.93}, {"measurement": "fold changes relative to vehicle control", "setting": "[5]; HeLa, protein LRPPRC", "result": 1.21}, {"measurement": "fold changes relative to vehicle control", "setting": "[6]; HeLa, protein MIG12", "result": 1.11}, {"measurement": "fold changes relative to vehicle control", "setting": "[7]; protein YWHAG, HeLa", "result": 0.91}, {"measurement": "fold changes relative to vehicle control", "setting": "[8]; HeLa, protein HSPC152", "result": 1.29}]}
